The source of these data is patent US20190309044A1, “POLYPEPTIDES AND USES THEREOF AS A DRUG FOR TREATMENT OF AUTOIMMUNE DISORDERS” (Compugen Ltd., priority 2017, published 2019).

Where “and” joins values, the source holds several entries; their conditions need not be identical. Equal entries are not always repeated. Entries after “also recorded” stand apart in the source; their conditions may differ.

In assay [1] the test system is healthy human skin transplanted onto beige-SCID mice. Kind of assay: Humanized psoriasis model, human skin xenografts on beige-SCID mice. The class given is in vivo, mouse. The following applies: for Healthy Skin, number of grafts / Partial Psoriasiform With Tendency Towards Healthy skin, number of grafts / Psoriasiform Skin, number of affected grafts: histological evaluation, day 28; for proliferation index (% Ki-67 positive cells): vs vehicle; for epidermal thickness: vs vehicle treated group. An excerpt: In this model, psoriasis is induced in xenotransplants of healthy human skin transplanted onto beige severe combined immunodeficiency (SCID) mice followed by intradermal (i.d.) injection of IL-2 enriched Peripheral Blood Mononuclear Cells (PBMCs) isolated from blood of psoriasis patients (Nickoloff, 1995; Wrone-Smith, 1996 Gilhar et al., 2002, 2006, 2011). The activity of these compounds was compared to that of Enbrel, a TNF inhibitor which is an approved biological drug for treatment of psoriasis. As a control for model robustness, we used dexamethasone, a steroid with suppressive effects on inflammatory cytokines and chemokines such as TNF-alpha and interferon-gamma which cause severe psoriasis. All treatments were administered intradermally, except for dexamethasone which was given topically.
2.2. Study Protocol A) Healthy human skin pieces with a width of 0.4 mm and surface area of 1.5×1.5 cm were provided from residual skin of routine plastic surgery procedures from the Plastic Surgery Department of the Rambam Medical Center, Israel. In addition, 20 mL blood samples were taken from psoriatic patients. B) Seventy (70) beige-severe combined immunodeficient mice (SCID) (weight ˜20-25 g) were included in this study. Normal healthy human donor skin was transplanted onto the beige-SCID mice as previously described (Nickoloff et al., 1995; Wrone-Smith, 1996; Gilhar et al., 2002, 2006, 2011; Kalish et al., 2009) and the mice were divided into 7 groups. C) Peripheral Blood Mononuclear Cells (PBMCs) isolated from psoriatic patients' blood were cultured in the presence of IL-2 [Prospec, 100 U/mL of RPMI 1640 media, 10% human AB serum (Sigma, St. Louis, Mo.), 1% glutamine, 1% antibiotics (media components; Biological Industries, Kibbutz Beit Haemeck, Israel)] for 14 days, as previously described (Gilhar et al, 2002). D) Four weeks following engraftment, each mouse was injected intra-dermally (i.d.) into the grafted skin lesion, with 1×10^7 activated allogeneic enriched PBMCs from psoriatic patients (FIG. 20). Cells from different psoriasis patients were equally distributed between treatment groups so that each patient is represented in each treatment group. E) On the day of PBMCs injection into the skin grafts, mice were divided randomly into treatment groups (n=9-10 mice per group) and administration of all drugs started (FIG. 20). All tested compounds including the vehicle were given intradermally (intralesional), three times a week, except for dexamethasone which was given topically for 14 consecutive days (Table 3).
F) Twenty eight days after starting the injections and treatment, skin was harvested (FIG. 20). Grafts were analyzed for the following psoriatic parameters by histology: epidermal thickening (acanthosis), suprapapillary epidermal thinning (papillomatosis), hyperkeratosis, parakeratosis, orthokeratosis, agranulosis-hypogranulosis, appearance of neutrophils in the upper spinous layer or in the corneal cell layer—Munro microabscess, regular elongation of rete ridges, angiogenesis, edema and dilated tortuous blood vessels in the dermal papilla and mononuclear cell infiltrate in the papillary dermis. Epidermal thickness was measured as detailed below, and HLA-DR, ICAM-1, Ki-67 and immune infiltrates (anti-CD3 stain) were evaluated by immunohistochemistry (IHC).
The entire skin graft was excised and placed in 10% formal saline overnight. Then, the specimens were place in 70% ethanol and were embedded according to the standard H&E protocol. Histological assessment of the skin grafts was performed by light microscopy and evaluated by two blinded observers [the second observer evaluated random slides (about 25% of all slides) to compare the data obtained by the first observer. […] Epidermal thickness was determined with an ocular micrometer at a minimum of 50 points along the epidermis selected to represent points of maximal and minimal thickness.
Representative grafts were allocated for IHC analysis. […]
A general note: A xenograft is tissue or cells of one species grown in another, often human tumour cells in immunodeficient mice.

For the next assay, the system named is MS patients' PBMCs. As to the kind of experiment: Proliferation and cytokine secretion of PBMCs from MS patients. The assay is classed as cell-based, human. As to the method: PBMCs were taken from eight MS patients with diagnosed relapsing-remitting disease who have experienced a relapse 1-2 days prior to blood drawing.
PBMCs were plated in a flat-bottom 96-well plate at 1e6 cells/well. The cells were cultured in the presence of anti-CD3 (0.5 ug/ml), MS-specific peptide MBP85-96 (10 ug/ml), or tetanus toxoid peptide TT830-843 (10 ug/ml). C1ORF32 ECD-Fc (SEQ ID NO: 43) or Control Ig were added to the cuture at the indicated concentrations. Two replicate plates were set to study for the effect of C1ORF32 ECD-Fc (SEQ ID NO: 43) on proliferation and on pro-inflammatory and anti-inflammatory cytokines secretion. To test for proliferation, the cultures were pulsed on day +1 of culture with 1uCi of tritiated thymidine and then harvested 3 days later on day +4 of culture. For cytokine analysis, super natantes from a replicate cultures were collected on day +4 of culture and tested using Millipore multiplex assay.

Assay [2] deals with TcK and macrophages co-cultures. Kind of assay: TcK:macrophage co-culture cytokine secretion, healthy volunteers. The class given is cell-based, human. The settings on record: buffy coats of healthy volunteers. As to the method: • Purified CD4+ cells (2×10^6 cells/ml) are activated for 6 days in complete medium containing IL-15 (100 ng/ml), IL-6 (100 ng/ml) and TNFa (25 ng/ml).
TcKs are added to macrophage culture following removal of existing culture media at a ratio of 4:1 (5×10^4 cells/well/CD4^+ T cells plus 2×10^5 cells/well CD14^+ Macrophages). C1ORF32 ECD-Fc (SEQ ID NO:43) or Control IgG are added at 1, 3, 10, 30 μg/ml. For additional controls co-cultures are added with vehicle or with medium only (Wennink et al., 2012).
After 24 hrs of culture, cytokines (IL-10, IFN-α, IL-6, IL-12, RANTES, IL-13, IL-15, IL-17, MIP-1α, GM-CSF, IFNγ, TNFα, IL-1RA, IL-7, IL-1B, eotaxin, IL-2 IL-4 and IL-2R) are analyzed using ELISA and/or Luminex.
Co-culture of TcK with autologeuos ex-vivo differentiated macrophages mimics one of the crucial pathways mediating synovial macrophage activation in RA thus serving as a translational tool for evaluating the therapeutic potential of drug candidates. Therefore the effect of C1ORF32 ECD-Fc (SEQ ID NO:43) was tested on the secretion of a range of pro-inflammatory and anti-inflammatory cytokines in such co-cultures. Two studies were carried out, one in which buffy coats from healthy volunteers was used and another study in which the responses of RA patients blood cells responses were compared to that of healthy voluntiers in which blood was used rather than buffy coats.

The test system of assay [3] is synovial-like T-cell - macrophage co-cultures. As to the kind of experiment: Synovial-like T-cell - macrophage co-cultures from RA patients not responding to TNF blockers, TNFa secretion. The class given is cell-based, human. An excerpt: The therapeutic potential of C1ORF32-ECD-FC (SEQ ID #43) for treating RA was studied in co-cultures of activated T cells and macrophages that were modified to mimic the deleterious interaction of these cells in RA synovium. This interaction drives the secretion of pro-inflammatory cytokines that play a major role in the pathology of RA, leading to progressive joint inflammation and to joint destruction. Thus, these co-cultures provide a translational tool to evaluate the effect of potential drugs for treatment of RA (Wenink et al., Ann Rheum Dis 2012; 71:1 80-83).
Purified T cells and myeloid cells from blood of RA patients that fail to respond to treatment with TNF blockers were activated for 6 days with TNFa, IL-6 and IL-15 and co-cultures with Monocytes derived macrophages that were generated by activation of CD14+ monocytes with M-CSF for 6 days.
The amounts were administered as follows: FIG. 33: 30microg/ml of each protein; FIG. 34: 3, 10, 30microg/ml of each protein as shown.

The subject of the next assay is male DBA-1 mice. Kind of assay: Established collagen induced arthritis (CIA), macroscopic and histological scores. The class given is in vivo, mouse. The following applies: Enbrel 5 mg/kg. The protocol:
Bovine type II collagen (CII) (RUNMC in house production, batch 03-04-08) at a concentration of 2 mg/ml in acetic acid 0.05M was emulsified in equal volumes of Freund's complete adjuvant (2 mg/ml of Mycobacterium tuberculosis strain H37Ra; Difco, Detroit, Mich.).
On day 0, 10-12 week old male DBA-1 mice (Janvier Elevage, France) (n=95) were immunized i.d. at the base of the tail with 100 μg of bovine CII. On day 21, mice received an intraperitoneal booster injection of 50 μg of CII dissolved in phosphate buffered saline (PBS), and the onset of arthritis occurred a few days after this booster.
Joint inflammation in each paw was scored visually, using a scale of 0-2 per paw with a maximal score of 8 per animal: 0=non inflamed, 1=mild inflammation, 1.5=marked inflammation, and 2=severe inflammation. Scoring was performed three times a week.
Treatment was started in established CIA early after onset of disease (i.e. therapeutic regimen), when the macroscopic scores per animal were between 0.25 and 1.25 (on a scale of 0-8). […] Histology was scored for inflammation and destruction on an arbitrary scale of 0-3, for five different parameters: […]
Joints were fixed for at least 4 days in 4% formaldehyde, decalcified in 5% formic acid, and subsequently dehydrated and embedded in paraffin. […] The severity of inflammation in the joints was scored on a scale of 0-3 (0=no cells, 1=mild cellularity, 2=moderate cellularity, and 3=maximal cellularity). […] Depletion of PG was determined using an arbitrary scale of 0-3, ranging from normal, fully stained cartilage to destained cartilage, fully depleted of PGs. Chondrocyte death was scored on a scale of 0-3 ranging from no loss of chondrocyte nuclei to complete empty cartilage surface. The degree of cartilage surface erosion was scored on a scale of 0-3, ranging from no damage to complete loss of articular cartilage. […] Histopathological changes in the joint were scored on three semiserial sections of the joint spaced 70 μm apart. […]

The test system of another assay is psoriasis patients. The settings on record: at week 12; cited from earlier work.

`C[C@@H]1C[C@H]2[C@@H]3CCC4=CC(=O)C=C[C@]4(C)[C@@]3(F)[C@@H](O)C[C@]2(C)[C@@]1(O)C(=O)CO` [dexamethasone]: in assay [1], the “Healthy Skin, number of grafts” value is listed as 7/10; the “Partial Psoriasiform With Tendency Towards Healthy skin, number of grafts” value is given as 1; the “Psoriasiform Skin, number of affected grafts” value (from here on “Psoriasiform Skin, number”) is 2 and 2/10. For the same molecule, in assay [1] (listed as Dexa), the “Partial Psoriasiform With Tendency Towards Healthy skin, number of grafts” value is 1/10 and the “Psoriasiform Skin, number” value is 2/10. Also, the “grafts with moderate lymphocytic infiltration” value in assay [1] (mouse, in vivo) was 1/10.

With “C1ORF32 ECD-Fc (SEQ ID NO: 43): human-human fusion protein: human C1ORF32 ECD fused to human immunoglobulin Fc (SEQ ID NO:43)”, in assay [1] (IHC), the “expression of HLA-DR, ICAM-1 and Ki-67” value is “decreased expression”; the “proliferation index (% Ki-67 positive cells)” value was “trend towards decrease”. Further, the “proliferation index (% Ki-67 positive cells)” value in assay [1] (IHC, listed as C1ORF ECD-Fc (SEQ ID NO:43)) is listed as “most pronounced reduction”. In assay [1], the “Healthy Skin, number of grafts” value is 5/9 and the “Psoriasiform Skin, number” value is on record as 4/9. The “cases in which disease symptoms were eliminated” value in assay [1] (summary in detailed description) is reported as “about a third of the cases”. Also, in assay [1] (listed as C1ORF ECD-Fc (SEQ ID NO:43)), the epidermal thickness entry is reported as “significant reduction”. Further, in the assay on MS patients' PBMCs (absence of activation), the “proliferation, secretion of IFNg, IL-17 and TNFa” value was “no effect”. In addition, the “IL-10, IL-4, TGFb and IL-6” value in the assay with MS patients' PBMCs (absence of activation, in some of the donors) is “elevation”. Also, the “IL-4, IL-10, TGFb and IL-6 secretion” value with MS patients' PBMCs (activated ex-vivo with MBP85-96) is listed as “increase”. For the same molecule, the “secretion of TNFa, RANTES, MIP-1a, GM-CSF and IL-5” value in assay [2] was “inhibited”. Further, in assay [3] (Example 20, 30 microg/ml), the TNFa secretion result was “decreased the secretion of TNFα” and the “TNFa secretion in one of the donors” value is listed as “inhibited TNFα secretion”. For the same molecule, the TNFa secretion result in assay [3] (Example 21, 3, 10, 30 microg/ml) is recorded as “decreased the secretion of TNFa; also recorded: inhibition of TNFa secretion in a dose dependent manner”.

Take Enbrel: the “proliferation index (% Ki-67 positive cells)” value in assay [1] (IHC) is reported as “trend of decrease”. In assay [1], the “Healthy Skin, number of grafts” value is 3/9; the “Psoriasiform Skin, number” value is 6/9; the epidermal thickness result was “no substantial effect; also recorded: no significant reduction”. Also, the “bone erosions, histology” value with male DBA-1 mice is listed as “significant reduction”. Besides, the “psoriasis patients achieving PASI 75” value in the assay with psoriasis patients is reported as “Forty nine”.
